One series relates to Pyricularia oryzae. The experiment in a line: whole plant or invertebrate. The series is classed as in vivo. The settings on record: Pyricularia oryzae, 120 h, read-out: control level.
In a further series the test system is Erysiphe graminis. Description: Test on protective effect against Erysiphe graminis (wheat). Type of series: in vivo. The settings on record: Blumeria graminis, 168 h; 500 ppm active ingredient sprayed on wheat (Norin No. 61) at 1.5 to 2-leaf stage before inoculation; 7 days after; read-out: control level. The protocol:
10 wheat seeds (variety: Norin No. 61) were sown in each plastic cup having a diameter of 5.5 cm and allowed to grow for 8 days in a greenhouse. […] After air drying, the plants were inoculated by equally sprinkling with conidia of Erysiphe graminis by using a midget duster or the like for innoculation and then incubated in a greenhouse until a development of disease. 7 days after, disease development indexes of first leaves for total pots were examined according to the standard in Test Example 3, a disease severity was determined using the expression in Test Example 3 and a control level (%) was calculated using the expression in Test Example 3.

Series [1] has as its system Pseudoperonospora cubensis. The experiment in a line: Test on protective effect against Pseudoperonospora cubensis (cucumber seedlings). Type of series: in vivo. The settings on record: Pseudoperonospora cubensis, 144 h; 500 ppm active ingredient sprayed on cucumber (Sagami-Hanziro) seedlings before inoculation; 6 days after; read-out: control level. The procedure:
4 cucumber seeds (variety: Sagami-Hanziro) were sown in each plastic cup having a diameter of 5.5 cm and allowed to grow for 7 days in a greenhouse. […] After air drying, the plants were inoculated by spraying with a conidia suspension of Pseudoperonospora cubensis. The inoculated plants were immediately put in a moist chamber at 20° C. (relative humidity of 100%) for 24 hours. Thereafter, the plants were transferred to a greenhouse. 6 days after, disease development indexes of cotyledons for total pots were examined according to the standard described below, a disease severity was determined using an expression shown below and a control level (%) was calculated using another expression shown below. The standard for disease development index is as follows: [table] Hereinbelow, an expression to calculate a disease severity (%) is shown. [formula] Hereinbelow, an expression to calculate a control level (%) is shown. [formula]

The next series deals with Rhizoctonia solani. Description: Test on protective effect against Rhizoctonia solani (rice pot test). The series is classed as in vivo. Particulars: Rhizoctonia solani, 120 h; 500 ppm active ingredient sprayed on rice (Kinmaze) at 2.5 to 3-leaf stage before inoculation; 5 days after inoculation; read-out: control level. The protocol:
15 rice seeds (variety: Kinmaze) were sown in each clay pot having a diameter of 7.5 cm and allowed to grow for 3 weeks in a greenhouse. […] After air drying, the plants were inoculated by uniformly covering the surface of the soil with Rhizoctonia solani cultured in a rice-husk bran medium and incubated in a moist chamber at 30° C. […] The standard for disease development index is as follows: [table] Hereinbelow, an expression to calculate a control level (%) is shown. [formula]

In general, melting point refers to the temperature, or range, at which the solid turns liquid. Take `CCC(C)c1c(NC(C)C)nc(-n2cccn2)nc1C(F)(F)F` (stereo not shown) [Compound No. 0240, 5-sec-butyl-N-(1-methylethyl)-2-(1H-pyrazol-1-yl)-6-trifluoromethylpyrimidine-4-amine]: the melting point is 85 to 87 °C. In addition, the pest or weed control at 500 ppm in the series on Pyricularia oryzae was determined as 100%. Besides, the pest or weed control at 500 ppm in the series on Erysiphe graminis is 100%.
Take `CCC(C)c1c(O)nc(-n2cccn2)nc1NCC(F)(F)F` (stereo not shown) [Compound No. 0353, 5-sec-butyl-2-(1H-pyrazol-1-yl)-6-(2,2,2-trifluoroethylamino)pyrimidin-4-ol]: the melting point was 141 to 143 °C.
As to `CCC(C)c1c(NCC(F)(F)F)nc(-n2cccn2)nc1OC(F)F` (stereo not shown) [Compound No. 0358, 5-sec-butyl-6-difluoromethoxy-2-(1H-pyrazol-1-yl)-N-(2,2,2-trifluoroethyl)pyrimidine-4-amine], the melting point lay in the range of 94 to 95 °C. Moreover, the pest or weed control at 500 ppm in the series with Pyricularia oryzae amounted to 100%. The pest or weed control at 500 ppm in series [1] was 100%. In the series on Erysiphe graminis, the pest or weed control at 500 ppm is 100%.
For `CCC(C)c1c(NCC(F)(F)F)nc(-n2cccn2)nc1SC` (stereo not shown) [Compound No. 0361, 5-sec-butyl-6-methylthio-2-(1H-pyrazol-1-yl)-N-(2,2,2-trifluoroethyl)pyrimidine-4-amine], the pest or weed control at 500 ppm (with Pyricularia oryzae; with Rhizoctonia solani; in series [1]; in the series on Erysiphe graminis) was 100% throughout.
Regarding `CCC(C)c1c(NCC(F)(F)F)nc(-n2cccn2)nc1S(C)(=O)=O` (stereo not shown) [Compound No. 0363, 5-sec-butyl-6-methylsulfonyl-2-(1H-pyrazol-1-yl)-N-(2,2,2-trifluoroethyl)pyrimidine-4-amine], the melting point was in the range of 52 to 55 °C.
In the case of `CCC(C)c1c(NCC(F)(F)F)nc(-n2cccn2)nc1N(CC)CC` (stereo not shown) [Compound No. 0371, 5-sec-butyl-N^4, N^4-diethyl-2-(1H-pyrazol-1-yl)-N^6-(2,2,2-trifluoroethyl)pyrimidine-4,6-diamine], the pest or weed control at 500 ppm (in series [1]; in the series with Erysiphe graminis) was 100% each time.
Molecule `CCC(C)c1c(Cl)nc(-n2cc(Cl)cn2)nc1NCC(F)(F)F` (stereo not shown) [Compound No. 0434, 5-sec-butyl-6-chloro-2-(4-chloro-1H-pyrazol-1-yl)-N-(2,2,2-trifluoroethyl)pyrimidine-4-amine] came in with a melting point of 173 to 174 °C. The pest or weed control at 500 ppm in the series on Pyricularia oryzae worked out at 100%. Moreover, in the series on Rhizoctonia solani, the pest or weed control at 500 ppm was 100%. Besides, the pest or weed control at 500 ppm in the series on Erysiphe graminis turned out to be 100%.
On to `CCOC(=O)c1cnn(-c2nc(Cl)c(C(C)CC)c(NCC(F)(F)F)n2)c1N` (stereo not shown) [Compound No. 0601, ethyl 5-amino-1-[5-sec-butyl-4-chloro-6-(2,2,2-trifluoroethylamino)pyrimidin-2-yl]-1H-pyrazol-4-carboxylate], for which the melting point lay within 173 to 174 °C.
Regarding `CCC(C)c1c(Cl)nc(-n2cccn2)nc1N1CCC(C)CC1` (stereo not shown) [Compound No. 1192, 5-sec-butyl-4-chloro-6-(4-methylpiperidin-1-yl)-2-(1H-pyrazol-1-yl)pyrimidine], the pest or weed control at 500 ppm in the series on Rhizoctonia solani and in the series on Erysiphe graminis was 100% throughout.
In the case of `CCC(C)c1c(SC)nc(-n2cccn2)nc1N1CCC(C)CC1` (stereo not shown) [Compound No. 1204, 5-sec-butyl-6-(4-methylpiperidin-1-yl)-4-methylthio-2-(1H-pyrazol-1-yl)pyrimidine], the melting point lay in the range of 69 to 71 °C. For the same molecule, in the series with Rhizoctonia solani, the pest or weed control at 500 ppm came out at 100%. For the same molecule, the pest or weed control at 500 ppm with Erysiphe graminis worked out at 100%.
As to `CCC(C)c1c(C#N)nc(-n2cccn2)nc1N1CCC(C)CC1` (stereo not shown) [Compound No. 1215, 5-sec-butyl-6-(4-methylpiperidin-1-yl)-2-(1H-pyrazol-1-yl)pyrimidine-4-carbonitrile], the pest or weed control at 500 ppm (in the series on Rhizoctonia solani; in series [1]; in the series on Erysiphe graminis) was 100% throughout.

The values are drawn from US20090042917A1, “Aminopyrimidine Derivative and Plant Disease Control Agent for Agricultural or Horticultural Use” (KUMIAI CHEMICAL INDUSTRY CO., LTD., priority 2006, published 2009).
